Source: patent US20230048888A1, “USE OF TRIAZOLOTRIAZINE DERIVATIVE IN TREATMENT OF DISEASES” (ZHEJIANG VIMGREEN PHARMACEUTICALS, LTD., priority 2019, published 2023)

How the values were obtained:
[1] = test system: 6-OHDA-induced contralateral rotation; test: 6-OHDA-induced rat rotation experiment, first stage (number of rotations); type: in vivo, Wistar rats
Text: After long-term use of levodopa, patients with Parkinson's disease are prone to drug resistance (end-of-dose phenomenon). That is, the duration of its pharmaceutical effect tends to gradually become shorter (shortened opening period), its efficacy will become weaker and weaker, and the symptoms of the patients are becoming more and more uncontrollable. By the combined use with the test compound, the efficacy of levodopa can be restored for patients with Parkinson's disease in the off phase, who have already experienced the end-of-dose phenomenon. The rat model of Parkinson's disease was constructed by fixed-point injection of 6-hydroxydopamine (6-OHDA) to damage the substantia nigra striatum, and then the animals were administrated with levodopa (L-DOPA)/Benserazide (BID) for a long term (3-4 weeks as planned).
There should be at least an interval of 1 day between rotation tests for respective doses. A total of 6 tests were carried out in the first stage.
[…] injection volume: each rat was injected with 4 μl of 6-OHDA solution (2.5 μg/μl) on the left medial forebrain bundle (MFB).
Coordinates for injecting […]: by taking the anterior fontanelle as a standard reference point and with reference to the stereotactic map of rat brain, the injection was performed on the left medial forebrain bundle at: anterior(A), −2.5 mm; lateral (L), +2.0 mm; ventral (V), −8.5 mm.
[…] injection speed: the injection speed was 1 μl/min; after injection, the needle was left in situ for 5 min, and then slowly withdrawn at a speed of 1 mm/min; and the wound was then sutured. Grouping and administration were carried out according to the method of experimental design.
In the first stage, only the number of rotations of the animal was tested, and only the rotation response time was tested in the second stage.
The test results are represented as “mean±standard deviation”. The data was statistically analyzed by the SPSS16.0 software package. One-way ANOVA, paired sample T test and independent sample T test were used for comparison, with P<0.05 showing a statistical difference.

[2] = test system: murine colon cancer MC38 cell line; test: Subcutaneous homotransplantation of murine colon cancer MC38 cell line in C57BL/6 female mice; type: in vivo; conditions: for T/C (%) / TGI (%) / Tumor volume: Day 22
Procedure: The MC38 mouse colon cancer cell model is a commonly used model for verifying a pharmaceutical effect on the colon cancer. It is mostly used to study the occurrence and metastasis direction of the colorectal cancer, and has become a common approach to the pharmaceutical effect verification for tumors. The anti-tumor effect of the subcutaneous homotransplantation of a test drug in a murine colon cancer MC38 cell line of C57BL/6 female mouse model was evaluated.
MC38 cells were cultured in a DMEM culture solution containing 10% fetal bovine serum. The MC38 cells in the exponential growth phase were collected and resuspended in PBS to a suitable concentration for subcutaneous tumor inoculation in mice.
Female mice were subcutaneously inoculated with 1×10^6 MC38 cells on the right side. The day of inoculation was defined as Day 0. On the second day (Day 1) of […] cell inoculation, the mice were administered randomly according to body weight. The solution of Compound 22 was prepared at 3 mg/mL and 10 mg/mL respectively for later use.
Formula for calculating tumor volume: tumor volume (mm^3)=½×(a×b^2) (a representing a long diameter and b representing a short diameter);
Tumor proliferation rate, T/C %, was a percentage ratio of tumor volume or tumor weight between the treatment group and the control group at a certain time point. It was calculated with a formula was as follows:
T/C %=TTV/CTV×100% (TTV (TTV: the average TV of the treatment group at a specific time point;
All experimental results were represented as the average tumor volume±SEM (mean standard error). Statistical analysis between different groups were conducted to select the optimal drug treatment point (usually after the last dosage). A comparison was conducted with the independent sample T test method to determine if there is a significant difference in tumor volume between the treatment group ad the control group. All data were analyzed with SPSS 18.0. P<0.05 indicated a significant difference.

[3] = test system: haloperidol-induced stiffness; test: Haloperidol-induced Wistar rat stiffness model (bar test, rearing); type: in vivo, Wistar rats; conditions: 10 mg/kg intragastric
Procedure: Time of bar test: The stiffness of the rats was tested by the bar test. That is, a wooden bar with a diameter of 8 mm was fixed between 2 iron stands and was 10 cm from the bench top; and then, the rat's tail was grabbed to make its front paws rest on the wooden bar and its hind paws or buttocks on the ground. Generally, the rat needs to acclimate several times when it was tested for the first time. The time for the forelimbs to drop from the bar or the time for the hind limbs to leave the bench top were tested, each rat was tested 3 times. Number of standings: the number of standings of the rat was measured by the rearing test. That is, the rat was placed in a 27*52 cm cage and acclimate for 5 minutes, and the spontaneous activity behavior, i.e., the number of standings, of the rat within 10 minutes was recorded. When the rat's hind limbs stood with two forelimbs raised over the shoulders and touched the ground, one standing is counted, and the one forelimb lift was excluded. Generally, the rat would raise its forelimbs to touch the cage wall. If the rat raised its forelimbs over the shoulders several times without falling to the ground, only one standing was counted. The time of bar test was taken as a measurement index, including the average time and the maximum time. Long time indicates severe stiffness, short time indicates mild stiffness. After drug treatment, the shorter the time of bar test, the better the effect of the drug on relieving stiffness. The number of standings was counted by the rearing test. The more the number of standings, the more frequent the spontaneous exploration activity of the rat, and the lower the stiffness. The statistical analysis between groups was performed on the data by using Prism GraphPad 7.0 independent sample T test, and P<0.05 was considered as a significant difference.

[4] = 30 mg/kg p.o. QD combined with Anti-PD-1 100 μg/animal i.p.

SMILES: CC(=O)O.Nc1nc(NCCc2ccc(NC3COC3)cc2)nc2nc(-c3ccco3)nn12 [Acetate of Compound 22, 2-(furan-2-yl)-N5-(4-(oxetane-3-ylamino)phenethyl)-[1,2,4]triazolo[1,5-a][1,3,5]triazine-5,7-diamine acetate]
- Total number of rotations (60 min) ([1]; 1 mg/kg oral + L-DOPA (5 mg/kg)/Benserazide (1.25 mg/kg) i.p.): 41.4 ± 80.8
- Total number of rotations (60 min) ([1]; 3 mg/kg oral + L-DOPA (5 mg/kg)/Benserazide (1.25 mg/kg) i.p.): 36.6 ± 46.3
- Total number of rotations (60 min) ([1]; 10 mg/kg oral + L-DOPA (5 mg/kg)/Benserazide (1.25 mg/kg) i.p.): 109.4 ± 205.2
- Total number of rotations (60 min) ([1]; 30 mg/kg oral + L-DOPA (5 mg/kg)/Benserazide (1.25 mg/kg) i.p.): 285.2 ± 283.8
- Total number of rotations (60 min) ([1]; 100 mg/kg oral + L-DOPA (5 mg/kg)/Benserazide (1.25 mg/kg) i.p.): 379.3 ± 326.4
- Total number of rotations (60 min) ([1]; single oral 1 mg/kg alone): 7.7 ± 5.6
- Total number of rotations (60 min) ([1]; single oral 3 mg/kg alone): 17.1 ± 18.7
- Total number of rotations (60 min) ([1]; single oral 10 mg/kg alone): 11.6 ± 13.9
- Total number of rotations (60 min) ([1]; single oral 30 mg/kg alone): 30.7 ± 22.5
- Total number of rotations (60 min) ([1]; single oral 100 mg/kg alone): 35.2 ± 18.8

SMILES: Nc1nc(NCCc2ccc(NC3COC3)cc2)nc2nc(-c3ccco3)nn12 [Compound 22, 2-(furan-2-yl)-N5-(4-(oxetan-3-ylamino)phenethyl)-[1,2,4]triazolo[1,5-a][1,3,5]triazine-5,7-diamine]
- T/C (%) ([2]; 30 mg/kg p.o. QD): 66%
- TGI (%) ([2]; 30 mg/kg p.o. QD): 34%
- Tumor volume ([2]; 30 mg/kg p.o. QD): 1205.60 ± 259.65 mm^3
- T/C (%) [2, 4]: 15%
- TGI (%) [2, 4]: 85%
- Tumor volume [2, 4]: 268.89 ± 57.10 mm^3
- T/C (%) ([2]; 100 mg/kg p.o. QD): 52%
- TGI (%) ([2]; 100 mg/kg p.o. QD): 48%
- Tumor volume ([2]; 100 mg/kg p.o. QD): 951.28 ± 116.30 mm^3
- Animal death / changes in body weight ([2]; alone or combined with anti-PD-1 antibody): no animal death or significant changes in body weight

SMILES: CCn1c(=O)c2c(nc(/C=C/c3ccc(OC)c(OC)c3)n2C)n(CC)c1=O [Istradefylline, reference compound]
- Average on-bar time [3]: 10.33 ± 1.58 s
- Maximum on-bar time [3]: 15.38 ± 2.75 s
- Number of standings ([3]; 1st hour after haloperidol): 23.25 ± 2.86
